Laboratory results taken from ChEMBL document CHEMBL3352523, “Synthesis and biological evaluation of podophyllotoxin congeners as tubulin polymerization inhibitors” (Bioorg Med Chem, 2014).
Calls of active or inactive are those of the source. No cut-off for these calls is given here.

Tests used:
HeLa [1] = assay: Antiproliferative activity against human HeLa cells assessed as growth inhibition after 48 hrs by SRB assay; type: functional
[2] = (§1) Antiproliferative activity against human MIAPaCa2 cells assessed as growth inhibition after 48 hrs by SRB assay; type: functional; conditions: MIA PaCa-2, 48 h
MCF7 = assay: Antiproliferative activity against human MCF7 cells assessed as growth inhibition after 48 hrs by SRB assay; type: functional; conditions: MCF7, 48 h
MIA PaCa-2 = assay: as §1; type: functional
HeLa [3] = assay: Antimitotic activity against human HeLa cells assessed as accumulation at G2/M phase at 5 uM after 24 hrs by PI staining based flow cytometry (reference value: 18.35%); type: functional
Tubulin = Tubulin (Bos taurus, UniProt Q6B856+Q862L2+Q862F3); assay: Inhibition of bovine brain tubulin polymerization by fluorescence analysis
HeLa [4] = assay: Induction of microtubule destabilization in human HeLa cells at 5 uM after 24 hrs by immunoblot analysis; type: cell-based
HeLa [5] = assay: Induction of microtubule depolymerization in human HeLa cells at 5 uM after 24 hrs by DAPI staining; type: cell-based

SMILES	GI50 (HeLa [1])	GI50 [2]	GI50 (MCF7)	GI50 (MIA PaCa-2)	Activity (HeLa [3])	IC50 (Tubulin)	Activity (HeLa [4])	Activity (HeLa [5])
COC(=O)[C@H]1C(c2nc3ccc(F)cc3[nH]2)=Cc2cc3c(cc2[C@H]1c1cc(OC)c(OC)c(OC)c1)OCO3	4.3 µM	3.9 µM	0.02 µM					
COC(=O)[C@H]1C(c2nc3ccc(F)c(Cl)c3[nH]2)=Cc2cc3c(cc2[C@H]1c1cc(OC)c(OC)c(OC)c1)OCO3	24.2 µM		2.3 µM	inactive				
COC(=O)[C@H]1C(c2nc3cc(C)c(C)cc3[nH]2)=Cc2cc3c(cc2[C@H]1c1cc(OC)c(OC)c(OC)c1)OCO3	3.6 µM	1.5 µM	0.16 µM					
COc1cc([C@@H]2c3cc4c(cc3[C@@H](O[C@@H]3O[C@@H]5CO[C@@H](C)O[C@H]5[C@H](O)[C@H]3O)[C@H]3COC(=O)[C@H]23)OCO4)cc(OC)c1O [ETOPOSIDE]	0.62 µM	1.1 µM	0.25 µM					
COC(=O)[C@H]1C(C=O)=Cc2cc3c(cc2[C@H]1c1cc(OC)c(OC)c(OC)c1)OCO3	0.69 µM	0.73 µM	0.91 µM					
COC(=O)[C@H]1C(c2nc3cc(C(F)(F)F)cc(Br)c3[nH]2)=Cc2cc3c(cc2[C@H]1c1cc(OC)c(OC)c(OC)c1)OCO3	6.4 µM	3.1 µM	2.1 µM					
COC(=O)[C@H]1C(c2nc3ccccc3[nH]2)=Cc2cc3c(cc2[C@H]1c1cc(OC)c(OC)c(OC)c1)OCO3	0.2 µM	1.2 µM	0.2 µM		56.05%	1.29 µM		
COC(=O)[C@H]1C(c2nc3ccc(Br)cc3[nH]2)=Cc2cc3c(cc2[C@H]1c1cc(OC)c(OC)c(OC)c1)OCO3	0.21 µM	< 0.01 µM	0.54 µM		73.96%	0.86 µM	Active	Active
COC(=O)[C@H]1C(c2nc3ccc(C(F)(F)F)cc3[nH]2)=Cc2cc3c(cc2[C@H]1c1cc(OC)c(OC)c(OC)c1)OCO3	5.08 µM		4.8 µM	inactive				
COC(=O)[C@H]1C(c2nc3ccc(Cl)cc3[nH]2)=Cc2cc3c(cc2[C@H]1c1cc(OC)c(OC)c(OC)c1)OCO3	2.16 µM	1.3 µM	2.09 µM					
COC(=O)[C@H]1C(c2nc3cc4ccccc4cc3[nH]2)=Cc2cc3c(cc2[C@H]1c1cc(OC)c(OC)c(OC)c1)OCO3	3.8 µM	2.56 µM	1.2 µM					
COc1cc([C@@H]2c3cc4c(cc3[C@H](O)[C@H]3COC(=O)[C@H]23)OCO4)cc(OC)c1OC [PODOFILOX]	0.74 µM	0.51 µM	0.31 µM					
COC(=O)[C@H]1C(c2nc3ccc(C)cc3[nH]2)=Cc2cc3c(cc2[C@H]1c1cc(OC)c(OC)c(OC)c1)OCO3	2.8 µM	18.1 µM	3.07 µM					
COC(=O)[C@H]1C(c2nc3ccc(OC)cc3[nH]2)=Cc2cc3c(cc2[C@H]1c1cc(OC)c(OC)c(OC)c1)OCO3	1.04 µM	1.6 µM	2.1 µM		68.91%	0.91 µM	Active	Active
COC(=O)[C@H]1C(c2nc3cc(Cl)c(Cl)cc3[nH]2)=Cc2cc3c(cc2[C@H]1c1cc(OC)c(OC)c(OC)c1)OCO3	19.7 µM	3.2 µM	0.58 µM					
COC(=O)Nc1nc2cc(C(=O)c3cccs3)ccc2[nH]1 [NOCODAZOLE]	0.81 µM	0.95 µM	0.94 µM					
